Read-outs that look alike come from different tables or passages of the source.
Legend:
[1] = tested on: SK-HEP-1; assay: MTS cytotoxicity assay, SK-HEP-1
Protocol: (§1) The isolated compounds were tested in vitro for their cytotoxicity to five human liver carcinoma cell lines (SMMC-7721, Huh-7, HepG2, SK-HEP-1, PLC/PRF/5) and the immortalized noncancerous human liver cell (LO2), in a 3-(4,5-dimethylthiazol-2-yl)-5(3-carboxymethoxyphenyl)2-(4-sulfopheny)-2H-tetrazolium (MTS; Promega, Beijing, China) assay [31]. In general, cells in the log phase of their cycle were seeded in 96-well plates (4000–5000 cells/well, NEST Biotechnology, Wuxi, China) in a 100-μL volume. After 12 h of incubation at 37 °C, each test compound was added. The cancer cell lines were exposed to the test compounds at five concentrations (0.064, 0.32, 1.6, 8, and 40 μM) in triplicate with cisplatin (Meilunbio, CAS No. 15663-27-1) and Taxol (Meilunbio, CAS No. 33069-62-4) as the positive control. After incubation for 48 h at 37 °C, 20 μL of MTS solution and 100 μL DMEM were added into the well. The incubation continued for another 1–4 h.

[2] = tested on: Huh-7; assay: MTS cytotoxicity assay, Huh-7
Protocol: as §1

[3] = tested on: PLC/PRF/5; assay: MTS cytotoxicity assay, PLC/PRF/5
Protocol: as §1

[4] = tested on: HepG2; assay: MTS cytotoxicity assay, HepG2
Protocol: as §1

[5] = tested on: SMMC-7721; assay: MTS cytotoxicity assay, SMMC-7721
Protocol: as §1

[6] = tested on: LO2; assay: cells; settings: Homo sapiens, L02, 48 h, read-out: IC50 ± SD
Excerpt: (§2) Considering its purported medicinal value for the treatment of liver disease, we tested the cytotoxic activities of ten xanthones isolated from H. stellatum against five human liver carcinoma cell lines (SMMC-7721, Huh-7, HepG2, SK-HEP-1, PLC/PRF/5), as well as the immortalized non-cancerous human liver cell (LO2) by the MTS method, in vitro, with cisplatin (CAS No. 15663-27-1, Meilunbio, Dalian, China) and Taxol (CAS No. 33069-62-4, Meilunbio, Dalian, China) as positive controls.
as §1

[7] = tested on: five human liver carcinoma cell lines; assay: cells; type: cell-based
Protocol: The incubation continued for another 1–4 h.

[8] = tested on: LO2
Excerpt: as §2, §1

[9] = tested on: HepG2
Protocol: as §1

[10] = tested on: SK-HEP-1
Protocol: as §1

[11] = tested on: SMMC-7721
Protocol: as §1

[12] = tested on: PKC; parameters: method as in PMID 26245668; settings: synthesized isojacareubin; cited from earlier work
[13] = tested on: Huh-7
Protocol: as §1

[14] = tested on: PLC/PRF/5
Protocol: as §1

[15] = Homo sapiens, SK-HEP1, 48 h, read-out: IC50 ± SD
[16] = Homo sapiens, Huh-7, 48 h, read-out: IC50 ± SD
[17] = Homo sapiens, PLC-PRF-5, 48 h, read-out: IC50 ± SD
[18] = Homo sapiens, HepG2, 48 h, read-out: IC50 ± SD
[19] = Homo sapiens, SMMC-7721, 48 h, read-out: IC50 ± SD
[20] = Homo sapiens, Huh-7, read-out: cytotoxic activity (class)
[21] = Homo sapiens, PLC-PRF-5, read-out: cytotoxic activity (class)
[22] = Homo sapiens, HepG2, read-out: cytotoxic activity (class)
[23] = Homo sapiens, SMMC-7721, read-out: cytotoxic activity (class)
[24] = read-out: IC50 ± SD, LO2 human normal liver cell line, MTS, 48 h, mean of three independent experiments
[25] = read-out: IC50 ± SD, SK-HEP-1, MTS, 48 h, mean of three independent experiments
[26] = read-out: IC50 ± SD, Huh-7, MTS, 48 h, mean of three independent experiments
[27] = read-out: IC50 ± SD, PLC/PRF/5, MTS, 48 h, mean of three independent experiments
[28] = range over five human liver carcinoma cell lines, read-out: IC50 value range
[29] = read-out: IC50 ± SD, HepG2, MTS, 48 h, mean of three independent experiments
[30] = read-out: IC50 ± SD, SMMC-7721, MTS, 48 h, mean of three independent experiments
[31] = Homo sapiens, SK-HEP1, read-out: cytotoxic activity (class)

| Molecule | IC50 [1, 15] [µM] | IC50 [2, 16] [µM] | IC50 [3, 17] [µM] | IC50 [4, 18] [µM] | IC50 [5, 19] [µM] | IC50 [6] [µM] | IC50 [4, 22] [µM] | also measured |
| --- | --- | --- | --- | --- | --- | --- | --- | --- |
| COc1cc(O)cc2oc3cc(O)c(O)cc3c(=O)c12 [Compound 5, 3,6,7-trihydroxy-1-methoxyxanthone] | > 40 | > 40 | > 40 | > 40 | > 40 | – | – | – |
| C=C(C)[C@@H]1Cc2c(cc(O)c3c(=O)c4ccc(O)c(O)c4oc23)OC1C=C(C)C (some centres unmarked) [Compound 9, Hypxanthone B] | > 40 | 25.8 ± 2.04 | 30.8 ± 0.38 | 11.93 ± 0.1 | 8.26 ± 0.57 | > 40 | 10 to 40 | IC50 [2, 20]: 10 to 40 µM; IC50 [3, 21]: 10 to 40 µM; IC50 ([7]; Homo sapiens, read-out: cytotoxicity (class)): 10 to 40 µM |
| O=c1c2c(O)cccc2oc2cc(O)cc(O)c12 [Compound 2, 1,3,8-trihydroxyxanthone] | > 40 | > 40 | > 40 | > 40 | 15.2 ± 0.27 | > 40 | – | IC50 [5, 23]: 10 to 40 µM |
| COc1cc2oc3ccccc3c(=O)c2cc1O [Compound 1, 2-hydroxy-3-methoxyxanthone] | > 40 | > 40 | > 40 | 10.2 ± 0.12 | > 40 | 14.5 ± 0.95 | 10 to 40 | – |
| O=c1c2cc(O)c(O)cc2oc2cc(O)cc(O)c12 [Compound 3, 1,3,6,7-tetrahydroxylxanthone] | > 40 | > 40 | > 40 | > 40 | > 40 | – | – | – |
| O=c1c2cc(O)ccc2oc2cc(O)cc(O)c12 [Compound 4, 1,3,7-trihydroxyxanthone] | > 40 | > 40 | > 40 | 22.6 ± 1.43 | > 40 | > 40 | 10 to 40 | – |
| isojacareubin [Compound 6] | – | – | – | – | – | – | – | IC50 [8]: < 10 µM; IC50 [8, 24]: 2.03 ± 0.04 µM; IC50 [1, 25]: 9.2 ± 0.21 µM; IC50 [9]: < 10 µM; IC50 [2, 26]: 9.09 ± 0.38 µM; IC50 [3, 27]: 11.8 ± 0.56 µM; IC50 [10]: < 10 µM; IC50 [7, 28]: 1.41 to 11.8 µM; IC50 [11]: < 10 µM; IC50 [4, 29]: 2.4 ± 0.02 µM; inhibition of PKC [12]: potent inhibitor; IC50 [5, 30]: 1.41 ± 0.03 µM; IC50 [13]: < 10 µM; IC50 [14]: 10 to 40 µM |
| C=C(C)C(CC=C(C)C)Cc1c(O)cc(O)c2c(=O)c3ccc(O)c(O)c3oc12 (centres unmarked) [Compound 10, calycinoxanthon D] | 31.1 ± 2.67 | 16.6 ± 0.24 | 24.9 ± 0.46 | 21.33 ± 0.16 | 6.27 ± 0.16 | 12.2 ± 0.25 | 10 to 40 | IC50 [1, 31]: 10 to 40 µM; IC50 [2, 20]: 10 to 40 µM; IC50 [3, 21]: 10 to 40 µM |
| COc1cc2oc3cc(O)cc(O)c3c(=O)c2cc1O [Compound 7, 1,3,7-trihydroxy-6-methoxyxanthone] | 37.1 ± 0.97 | > 40 | > 40 | > 40 | 28.2 ± 0.89 | 12.1 ± 0.14 | – | IC50 [1, 31]: 10 to 40 µM; IC50 [5, 23]: 10 to 40 µM |
| CC(=O)O[C@H]1C(=O)[C@@]2(C)[C@H]([C@H](OC(=O)c3ccccc3)[C@]3(O)C[C@H](OC(=O)[C@H](O)[C@@H](NC(=O)c4ccccc4)c4ccccc4)C(C)=C1C3(C)C)[C@]1(OC(C)=O)CO[C@@H]1C[C@@H]2O [Taxol, reference compound] | < 0.01 | 0.11 ± 0.011 | < 0.01 | < 0.01 | 0.18 ± 0.03 | < 0.01 | – | – |
| N.N.[Cl][Pt][Cl] [Cisplatin, cisplatin, reference compound] | – | – | – | – | – | – | – | IC50 [8, 24]: 13.9 ± 0.87 µM; IC50 [1, 25]: 20.6 ± 1.03 µM; IC50 [2, 26]: 16 ± 0.95 µM; IC50 [3, 27]: 10.7 ± 0.8 µM; IC50 [7, 28]: 4.47 to 20.6 µM; IC50 [4, 29]: 10.3 ± 0.5 µM; IC50 [5, 30]: 4.47 ± 0.27 µM |
